Measurements taken from patent US11319315B2, “Cyclohexyl acid triazole azoles as LPA antagonists” (BRISTOL-MYERS SQUIBB COMPANY, priority 2017, dated 2022).

molecular target: T1, human LPA1 (Homo sapiens, UniProt Q92633); experiment: LPA1 functional antagonist assay (LPA-induced calcium flux in CHO cells overexpressing human LPA1); type: cell-based; conditions: inhibition of calcium flux induced by 10 nM LPA, CHO cells overexpressing human LPA1; read-out: hLPA1 IC50
T1 construct: expressed in transfected cells; host or cells: Chinese hamster ovary (CHO) cells
Procedure, shortened: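 Calcium flux was triggered by 10 nM LPA after 20 min room-temperature compound pre-incubation (final 0.08 nM to 5 μM, 0.5% DMSO) in human LPA1-overexpressing CHO cells carrying calcium dye. Buffer: HBSS with Ca/Mg, 20 mM HEPES, 0.1% fatty-acid-free BSA; IC50s from 4-parameter logistic fits.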

T1 sequence (Q92633 whole entry): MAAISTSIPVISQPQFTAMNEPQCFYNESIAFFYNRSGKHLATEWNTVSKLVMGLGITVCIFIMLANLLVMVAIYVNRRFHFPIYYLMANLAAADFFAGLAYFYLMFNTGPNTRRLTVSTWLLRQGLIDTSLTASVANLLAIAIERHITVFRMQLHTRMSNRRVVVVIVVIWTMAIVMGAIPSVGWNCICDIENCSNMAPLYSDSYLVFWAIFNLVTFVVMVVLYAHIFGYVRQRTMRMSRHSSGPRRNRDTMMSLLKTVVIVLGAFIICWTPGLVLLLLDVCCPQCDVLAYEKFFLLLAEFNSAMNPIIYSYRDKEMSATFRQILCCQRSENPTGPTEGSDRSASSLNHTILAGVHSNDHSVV

SMILES | IC50
CCCC(C)(C)c1nc(NCc2c(-c3ccc(O[C@H]4CCC[C@H](C(=O)O)C4)c(C)n3)nnn2C)no1 [Example 197] | 42 nM
Cc1nc(-c2nnn(C)c2CNc2noc(C3CC(C)C3)n2)ccc1O[C@H]1CCC[C@H](C(=O)O)C1 (stereo partly shown) [Example 198] | 28 nM
Cc1nc(-c2nnn(C)c2CNc2noc(C3CC(C)C3)n2)ccc1O[C@H]1CCC[C@H](C(=O)O)C1 (stereo partly shown) [Example 199] | 33 nM
Cc1nc(-c2nnn(C)c2CNc2noc(CCC(C)F)n2)ccc1O[C@H]1CCC[C@H](C(=O)O)C1 (stereo partly shown) [Example 200] | 31 nM
Cc1nc(-c2nnn(C)c2CNc2noc(CCC(C)F)n2)ccc1O[C@H]1CCC[C@H](C(=O)O)C1 (stereo partly shown) [Example 201] | 32 nM
C=CCC(C)c1nc(NCc2c(-c3ccc(O[C@H]4CCC[C@H](C(=O)O)C4)c(C)n3)nnn2C)no1 (stereo partly shown) [Example 202] | 8.4 nM
C=C1CC(c2nc(NCc3c(-c4ccc(O[C@H]5CCC[C@H](C(=O)O)C5)c(C)n4)nnn3C)no2)C1 [Example 203] | 11.5 nM
Cc1nc(-c2nnn(C)c2CNc2noc(C3CC34CC4)n2)ccc1O[C@H]1CCC[C@H](C(=O)O)C1 (stereo partly shown) [Example 204] | 18.1 nM
Cc1nc(-c2nnn(C)c2CNc2noc(C3CC34CC4)n2)ccc1O[C@H]1CCC[C@H](C(=O)O)C1 (stereo partly shown) [Example 205] | 24 nM
Cc1nc(-c2nnn(C)c2Cn2ncnc2C2CC2)ccc1O[C@H]1CCC[C@H](C(=O)O)C1 [Example 206] | 1090 nM
Cc1nc(-c2nnn(C)c2Cn2ncnc2-c2ccccc2)ccc1O[C@H]1CCC[C@H](C(=O)O)C1 [Example 207, (1S,3S)-3-((2-Methyl-6-(1-methyl-5-((5-phenyl-1H-1,2,4-triazol-1-yl)methyl)-1H-1,2,3-triazol-4-yl)pyridin-3-yl)oxy)cyclohexane-1-carboxylic acid] | 213 nM
Cc1nc(-c2nnn(C)c2Cn2cnc(-c3ccccc3)n2)ccc1O[C@H]1CCC[C@H](C(=O)O)C1 [Example 208, (1S,3S)-3-((2-Methyl-6-(1-methyl-5-((3-phenyl-1H-1,2,4-triazol-1-yl)methyl)-1H-1,2,3-triazol-4-yl)pyridin-3-yl)oxy)cyclohexane-1-carboxylic acid] | 370 nM
Cc1nc(-c2nnn(C)c2Cn2cnnc2CC2CC2)ccc1O[C@H]1CCC[C@H](C(=O)O)C1 [Example 209] | 2080 nM
Cc1nc(-c2nnn(C)c2Cn2cnc(CC3CC3)n2)ccc1O[C@H]1CCC[C@H](C(=O)O)C1 [Example 210] | 191 nM
Cc1nc(-c2nnn(C)c2CNc2ncn(-c3cc(F)cc(F)c3)n2)ccc1O[C@H]1CCC[C@H](C(=O)O)C1 [Example 211, (1 S,3 S)-3-((6-(5-(((1-(3,5-difluorophenyl)-1H-1,2,4-triazol-3-yl)amino)methyl)-1-methyl-1H-1,2,3-triazol-4-yl)-2-methylpyridin-3-yl)oxy)cyclohexane-1-carboxylic acid] | 45 nM
Cc1nc(-c2nnn(C)c2CNc2noc(COC3CC3)n2)ccc1O[C@H]1CCC[C@H](C(=O)O)C1 [Example 212, (1 S,3 S)-3-((6-(5-(((5-(cyclopropoxymethyl)-1,2,4-oxadiazol-3-yl)amino)methyl)-1-methyl-1H-1,2,3-triazol-4-yl)-2-methylpyridin-3-yl)oxy)cyclohexane-1-carboxylic acid] | 34 nM
CCOCCc1nc(NCc2c(-c3ccc(O[C@H]4CCC[C@H](C(=O)O)C4)c(C)n3)nnn2C)no1 [Example 213, (1S,3S)-3-((6-(5-(((5-(2-ethoxy-ethyl)-1,2,4-oxadiazol-3-yl)amino)methyl)-1-methyl-1H-1,2,3-triazol-4-yl)-2-methylpyridin-3-yl)oxy)cyclohexane-1-carboxylic acid] | 98 nM

SMILES | IC50
Cc1nc(-c2nnn(C)c2CNc2noc(CCOC(C)C)n2)ccc1O[C@H]1CCC[C@H](C(=O)O)C1 [Example 214, (1S,3S)-3-((6-(5-(((5-(2-isopro-poxyethyl)-1,2,4-oxadiazol-3-yl)amino)methyl)-1-methyl-1H-1,2,3-triazol-4-yl)-2-methylpyridin-3-yl)oxy)cyclohexane-1-carboxylic acid] | 246 nM
CCCO[C@H](C)c1nc(NCc2c(-c3ccc(O[C@H]4CCC[C@H](C(=O)O)C4)c(C)n3)nnn2C)no1 [Example 219, (1S,3S)-3-((2-methyl-6-(1-methyl-5-(((5-((R)-1-propoxyethyl)-1,2,4-oxadiazol-3-yl)amino)methyl)-1H-1,2,3-triazol-4-yl)pyridin-3-yl)oxy)cyclohexane-1-carboxylic acid] | 63 nM
CCCO[C@@H](C)c1nc(NCc2c(-c3ccc(O[C@H]4CCC[C@H](C(=O)O)C4)c(C)n3)nnn2C)no1 [Example 220] | 160 nM
CCc1nc(N(C)Cc2c(-c3ccc(O[C@H]4CCC[C@H](C(=O)O)C4)c(C)n3)nnn2C)no1 [Example 224, (1S,3S)-3-((6-(5-(((5-ethyl-1,2,4-oxadiazol-3-yl)(methyl)amino)methyl)-1-methyl-1H-1,2,3-triazol-4-yl)-2-methylpyridin-3-yl)oxy)cyclo-hexane-1-carboxylic acid] | 2720 nM
CCOC1(c2nc(NCc3c(-c4ccc(O[C@H]5CCC[C@H](C(=O)O)C5)c(C)n4)nnn3C)no2)CC1 [Example 225, (1S,3S)-3-((6-(5-(((5-(1-ethoxy-cyclopropyl)-1,2,4-oxadiazol-3-yl)amino)methyl)-1-methyl-1H-1,2,3-triazol-4-yl)-2-methylpyridin-3-yl)oxy)cyclohexane-1-carboxylic acid] | 1320 nM
Cc1nc(-c2nnn(C)c2Cc2noc(CCC(C)(F)F)n2)ccc1O[C@H]1CCC[C@H](C(=O)O)C1 [Example 227, (1 S,3 S)-3-((6-(5-((5-(3,3-difluorobutyl)-1,2,4-oxadiazol-3-yl)methyl)-1-methyl-1H-1,2,3-triazol-4-yl)-2-methylpyridin-3-yl)oxy)cyclohexane-1-carboxylic acid] | 2 nM
Cc1nc(-c2nnn(C)c2Cc2noc(CC3CC3)n2)ccc1O[C@H]1CCC[C@H](C(=O)O)C1 [Example 228, (1S,3S)-3-((6-(5-((5-(cyclopropylmethyl)-1,2,4-oxadiazol-3-yl)methyl)-1-methyl-1H-1,2,3-triazol-4-yl)-2-methylpyridin-3-yl)oxy)cyclohexane-1-carboxylic acid] | 19 nM
Cc1nc(-c2nnn(C)c2Cc2noc(CCC(C)C)n2)ccc1O[C@H]1CCC[C@H](C(=O)O)C1 [Example 229, (1S,3S)-3-((6-(5-((5-isopentyl-1,2,4-oxadiazol-3-yl)methyl)-1-methyl-1H-1,2,3-triazol-4-yl)-2-methylpyridin-3-yl)oxy)cyclohexane-1-carboxylic acid] | 11 nM
Cc1nc(-c2nnn(C)c2Cc2noc(C(C)C)n2)ccc1O[C@H]1CCC[C@H](C(=O)O)C1 [Example 230, (1S,3S)-3-((6-(5-((5-isopropyl-1,2,4-oxadiazol-3-yl)methyl)-1-methyl-1H-1,2,3-triazol-4-yl)-2-methylpyridin-3-yl)oxy)cyclohexane-1-carboxylic acid] | 95 nM
Cc1nc(-c2nnn(C)c2Cc2noc(CCC3CC3)n2)ccc1O[C@H]1CCC[C@H](C(=O)O)C1 [Example 231, (1S,3S)-3-((6-(5-((5-(2-cyclopropylethyl)-1,2,4-oxadiazol-3-yl)methyl)-1-methyl-1H-1,2,3-triazol-4-yl)-2-methylpyridin-3-yl)oxy)cyclohexane-1-carboxylic acid] | 15 nM
Cc1nc(-c2nnn(C)c2Cc2noc(CCC3CCC3)n2)ccc1O[C@H]1CCC[C@H](C(=O)O)C1 [Example 232, (1S,3S)-3-((6-(5-((5-(2-cyclobutylethyl)-1,2,4-oxadiazol-3-yl)methyl)-1-methyl-1H-1,2,3-triazol-4-yl)-2-methylpyridin-3-yl)oxy)cyclohexane-1-carboxylic acid] | 8 nM
CCCCc1nc(Cc2c(-c3ccc(O[C@H]4CCC[C@H](C(=O)O)C4)c(C)n3)nnn2C)no1 [Example 233, (1S,3S)-3-((6-(5-((5-butyl-1,2,4-oxadiazol-3-yl)methyl)-1-methyl-1H-1,2,3-triazol-4-yl)-2-methylpyridin-3-yl)oxy)cyclohexane-1-carboxylic acid] | 8 nM
Cc1nc(-c2nnn(C)c2Cc2noc(CC(C)C)n2)ccc1O[C@H]1CCC[C@H](C(=O)O)C1 [Example 234, (1S,3S)-3-((6-(5-((5-isobutyl-1,2,4-oxadiazol-3-yl)methyl)-1-methyl-1H-1,2,3-triazol-4-yl)-2-methylpyridin-3-yl)oxy)cyclohexane-1-carboxylic acid] | 52 nM
CCCc1nc(Cc2c(-c3ccc(O[C@H]4CCC[C@H](C(=O)O)C4)c(C)n3)nnn2C)no1 [Example 235, (1S,3S)-3-((2-methyl-6-(1-methyl-5-((5-propyl-1,2,4-oxadiazol-3-yl)methyl)-1H-1,2,3-triazol-4-yl)pyridin-3-yl)oxy)cyclohexane-1-carboxylic acid] | 59 nM
Cc1nc(-c2nnn(C)c2Cc2noc(CC3CCC3)n2)ccc1O[C@H]1CCC[C@H](C(=O)O)C1 [Example 236, (1S,3S)-3-((6-(5-((5-(cyclobutyl-methyl)-1,2,4-oxadiazol-3-yl)methyl)-1-methyl-1H-1,2,3-triazol-4-yl)-2-methylpyridin-3-yl)oxy)cyclohexane-1-carboxylic acid] | 28 nM
Cc1nc(-c2nnn(C)c2Cc2noc(Cc3ccccc3)n2)ccc1O[C@H]1CCC[C@H](C(=O)O)C1 [Example 237, (1S,3S)-3-((6-(5-((5-benzyl-1,2,4-oxadiazol-3-yl)methyl)-1-methyl-1H-1,2,3-triazol-4-yl)-2-methylpyridin-3-yl)oxy)cyclohexane-1-carboxylic acid] | 8 nM
Cc1nc(-c2nnn(C)c2Cc2noc(-c3ccccc3)n2)ccc1O[C@H]1CCC[C@H](C(=O)O)C1 [Example 238, (1S,3S)-3-((2-methyl-6-(1-methyl-5-((5-phenyl-1,2,4-oxadiazol-3-yl)methyl)-1H-1,2,3-triazol-4-yl)pyridin-3-yl)oxy)cyclohexane-1-carboxylic acid] | 161 nM
